Test results published in ChEMBL document CHEMBL3044821, “Microwave-induced CAN promoted atom-economic synthesis of 1H-benzo[b]xanthene and 4H-benzo[g]chromene derivatives of N-allyl quinolone and their antimicrobial activity” (2013).
In brackets after ≈: the same amount, converted by molar mass.

What was measured:
Assay type in all cases: functional
[1] = tested on: Candida albicans; assay: Antifungal activity against Candida albicans MTCC 227 assessed as growth inhibition after 24 to 48 hr by NCCLS broth microdilution method
[2] = tested on: Staphylococcus aureus; assay: Antibacterial activity against Staphylococcus aureus MTCC 96 assessed as growth inhibition after 24 to 48 hr by NCCLS broth microdilution method
[3] = tested on: Escherichia coli; assay: Antibacterial activity against Escherichia coli MTCC 443 assessed as growth inhibition after 24 to 48 hr by NCCLS broth microdilution method
[4] = tested on: Aspergillus niger; assay: Antifungal activity against Aspergillus niger MTCC 282 assessed as growth inhibition after 24 to 48 hr by NCCLS broth microdilution method
[5] = tested on: Streptococcus pyogenes; assay: Antibacterial activity against Streptococcus pyogenes MTCC 442 assessed as growth inhibition after 24 to 48 hr by NCCLS broth microdilution method
[6] = tested on: Pseudomonas aeruginosa; assay: Antibacterial activity against Pseudomonas aeruginosa MTCC 1688 assessed as growth inhibition after 24 to 48 hr by NCCLS broth microdilution method
[7] = tested on: Aspergillus clavatus; assay: Antifungal activity against Aspergillus clavatus MTCC 1323 assessed as growth inhibition after 24 to 48 hr by NCCLS broth microdilution method

| Molecule | MIC [1] [µg/mL] | MIC [2] [µg/mL] | MIC [3] [µg/mL] | MIC [4] [µg/mL] | MIC [5] [µg/mL] | MIC [6] [µg/mL] | MIC [7] [µg/mL] |
| --- | --- | --- | --- | --- | --- | --- | --- |
| C=CCn1c(=O)c(C2C3=C(CC(C)(C)CC3=O)OC3=C2C(=O)c2ccccc2C3=O)cc2ccccc21 (stereo not drawn) | > 1000 | 250 (≈ 509 µM) | 100 (≈ 203 µM) | > 1000 | 200 (≈ 407 µM) | 100 (≈ 203 µM) | > 1000 |
| CC1(C)S[C@@H]2[C@H](NC(=O)[C@H](N)c3ccccc3)C(=O)N2[C@H]1C(=O)O [AMPICILLIN] |  | 250 (≈ 715 µM) | 100 (≈ 286 µM) |  | 100 (≈ 286 µM) |  |  |
| COC1=CC(=O)C[C@@H](C)[C@]12Oc1c(Cl)c(OC)cc(OC)c1C2=O [GRISEOFULVIN] | 500 (≈ 1420 µM) |  |  | 100 (≈ 283 µM) |  |  | 100 (≈ 283 µM) |
| C=CCn1c(=O)c(C2C3=C(CCCC3=O)OC3=C2C(=O)c2ccccc2C3=O)cc2ccccc21 (stereo not drawn) | 250 (≈ 539 µM) | 200 (≈ 432 µM) | 200 (≈ 432 µM) | 500 (≈ 1080 µM) | 125 (≈ 270 µM) | 250 (≈ 539 µM) | 500 (≈ 1080 µM) |
| NYSTATIN | 100 |  |  | 100 |  |  | 100 |
| C=CCn1c(=O)c(C2C3=C(CCCC3=O)OC3=C2C(=O)c2ccccc2C3=O)cc2cc(Cl)ccc21 (stereo not drawn) | 500 (≈ 1000 µM) | 500 (≈ 1000 µM) | 250 (≈ 502 µM) | 1000 (≈ 2010 µM) | 50 (≈ 100 µM) | 62.5 (≈ 126 µM) | 100 (≈ 201 µM) |
| C=CCn1c(=O)c(C2C(C#N)=C(N)OC3=C2C(=O)c2ccccc2C3=O)cc2cc(C)ccc21 (stereo not drawn) | 1000 (≈ 2220 µM) | 200 (≈ 445 µM) | 250 (≈ 556 µM) | 500 (≈ 1110 µM) | 100 (≈ 222 µM) | 500 (≈ 1110 µM) | 1000 (≈ 2220 µM) |
| C=CCn1c(=O)c(C2C(C#N)=C(N)OC3=C2C(=O)c2ccccc2C3=O)cc2cc(Cl)ccc21 (stereo not drawn) | 500 (≈ 1060 µM) | 500 (≈ 1060 µM) | 200 (≈ 426 µM) | 1000 (≈ 2130 µM) | 100 (≈ 213 µM) | 500 (≈ 1060 µM) | 100 (≈ 213 µM) |
| C=CCn1c(=O)c(C2C3=C(CCCC3=O)OC3=C2C(=O)c2ccccc2C3=O)cc2cc(C)ccc21 (stereo not drawn) | 500 (≈ 1050 µM) | 250 (≈ 524 µM) | 500 (≈ 1050 µM) | 1000 (≈ 2090 µM) | 250 (≈ 524 µM) | 250 (≈ 524 µM) | 1000 (≈ 2090 µM) |
| C=CCn1c(=O)c(C2C(C(=O)OC(C)C)=C(N)OC3=C2C(=O)c2ccccc2C3=O)cc2cc(Cl)ccc21 (stereo not drawn) | 500 (≈ 942 µM) | 500 (≈ 942 µM) | 200 (≈ 377 µM) | 100 (≈ 188 µM) | 500 (≈ 942 µM) | 100 (≈ 188 µM) | 250 (≈ 471 µM) |
| C=CCn1c(=O)c(C2C(C(=O)OC(C)C)=C(N)OC3=C2C(=O)c2ccccc2C3=O)cc2cc(C)ccc21 (stereo not drawn) | > 1000 | 125 (≈ 245 µM) | 25 (≈ 49 µM) | 1000 (≈ 1960 µM) | 500 (≈ 979 µM) | 250 (≈ 490 µM) | 500 (≈ 979 µM) |
| C=CCn1c(=O)c(C2C3=C(CC(C)(C)CC3=O)OC3=C2C(=O)c2ccccc2C3=O)cc2cc(OC)ccc21 (stereo not drawn) | 1000 (≈ 1920 µM) | 500 (≈ 959 µM) | 125 (≈ 240 µM) | 500 (≈ 959 µM) | 250 (≈ 479 µM) | 100 (≈ 192 µM) | 500 (≈ 959 µM) |
| C=CCn1c(=O)c(C2C(C#N)=C(N)OC3=C2C(=O)c2ccccc2C3=O)cc2cc(OC)ccc21 (stereo not drawn) | 1000 (≈ 2150 µM) | 250 (≈ 537 µM) | 125 (≈ 269 µM) | > 1000 | 200 (≈ 430 µM) | 200 (≈ 430 µM) | 1000 (≈ 2150 µM) |
| C=CCn1c(=O)c(C2C(C#N)=C(N)OC3=C2C(=O)c2ccccc2C3=O)cc2ccccc21 (stereo not drawn) | 250 (≈ 574 µM) | 62.5 (≈ 144 µM) | 100 (≈ 230 µM) | 500 (≈ 1150 µM) | 250 (≈ 574 µM) | 250 (≈ 574 µM) | > 1000 |
| C=CCn1c(=O)c(C2C(C(=O)OC(C)C)=C(N)OC3=C2C(=O)c2ccccc2C3=O)cc2cc(OC)ccc21 (stereo not drawn) | 1000 (≈ 1900 µM) | 100 (≈ 190 µM) | 250 (≈ 475 µM) | 500 (≈ 950 µM) | 200 (≈ 380 µM) | 200 (≈ 380 µM) | 500 (≈ 950 µM) |
| C=CCn1c(=O)c(C2C3=C(CC(C)(C)CC3=O)OC3=C2C(=O)c2ccccc2C3=O)cc2cc(C)ccc21 (stereo not drawn) | > 1000 | 500 (≈ 989 µM) | 62.5 (≈ 124 µM) | 125 (≈ 247 µM) | 250 (≈ 494 µM) | 500 (≈ 989 µM) | 1000 (≈ 1980 µM) |
| O=C(N[C@H](CO)[C@H](O)c1ccc([N+](=O)[O-])cc1)C(Cl)Cl [CHLORAMPHENICOL] |  | 50 (≈ 155 µM) | 50 (≈ 155 µM) |  | 50 (≈ 155 µM) | 50 (≈ 155 µM) |  |
| C=CCn1c(=O)c(C2C(C(=O)OC(C)C)=C(N)OC3=C2C(=O)c2ccccc2C3=O)cc2ccccc21 (stereo not drawn) | 500 (≈ 1010 µM) | 500 (≈ 1010 µM) | 200 (≈ 403 µM) | 250 (≈ 504 µM) | 250 (≈ 504 µM) | 50 (≈ 101 µM) | > 1000 |
| C=CCn1c(=O)c(C2C3=C(CCCC3=O)OC3=C2C(=O)c2ccccc2C3=O)cc2cc(OC)ccc21 (stereo not drawn) | 1000 (≈ 2030 µM) | 500 (≈ 1010 µM) | 250 (≈ 507 µM) | 100 (≈ 203 µM) | 500 (≈ 1010 µM) | 20 (≈ 40.5 µM) | 1000 (≈ 2030 µM) |
| O=C(O)c1cn(C2CC2)c2cc(N3CCNCC3)c(F)cc2c1=O [CIPROFLOXACIN] |  | 50 (≈ 151 µM) | 25 (≈ 75.4 µM) |  | 50 (≈ 151 µM) |  |  |
| C=CCn1c(=O)c(C2C3=C(CC(C)(C)CC3=O)OC3=C2C(=O)c2ccccc2C3=O)cc2cc(Cl)ccc21 (stereo not drawn) | > 1000 | 200 (≈ 380 µM) | 200 (≈ 380 µM) | 1000 (≈ 1900 µM) | 500 (≈ 951 µM) | 250 (≈ 475 µM) | 100 (≈ 190 µM) |
